Where “and” joins values, the source holds several entries; their conditions need not be identical. Equal entries are not always repeated. Results filed as inconclusive are left out.
Test system: CD8F1 mice, subcutaneous mammary adenocarcinoma, T/C%
Test: NCI In Vivo Anticancer Drug Screen. Data for tumor model Mammary Adenocarcinoma CD8F1 (subcutaneous) in CD8F1
Details: higher = larger tumour
How it was run: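 Transplantable tumors were established in mice, animals were dosed with compound or vehicle, and survival or tumor size was then measured in both groups. The treated result was divided by the control result.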

## C[C@]12C=CC(=O)C=C1CC[C@@H]1[C@@H]2[C@@H](O)C[C@@]2(C)[C@H]1CC[C@]2(O)C(=O)CO
endpoint: median tumor weight change, dose: 100.0 mg/kg/injection, schedule: Q01DX001 (ip), vehicle: Klucel (hydroxypropylcellulose) (HPC)
  T/C: 111 % of control
endpoint: median tumor weight change, dose: 200.0 mg/kg/injection, schedule: Q01DX001 (ip), vehicle: Klucel (hydroxypropylcellulose) (HPC)
  T/C: 67 % of control and 87 % of control and 90 % of control
endpoint: median tumor weight change, dose: 800.0 mg/kg/injection, schedule: Q01DX001 (ip), vehicle: Klucel (hydroxypropylcellulose) (HPC)
  T/C: 32 % of control and 38 % of control and 52 % of control
endpoint: median tumor weight change, dose: 1600.0 mg/kg/injection, schedule: Q01DX001 (ip), vehicle: Klucel (hydroxypropylcellulose) (HPC)
  T/C: 14 % of control

## CN(C)CC(Cl)CCl (stereo not given)
endpoint: mean tumor weight, dose: 50.0 mg/kg/injection, schedule: Q07DX009 (ip), vehicle: saline
  T/C: 39 % of control
endpoint: mean tumor weight, dose: 100.0 mg/kg/injection, schedule: Q07DX006 (ip), vehicle: saline
  T/C: 88 % of control
endpoint: mean tumor weight, dose: 100.0 mg/kg/injection, schedule: Q07DX009 (ip), vehicle: saline
  T/C: 94 % of control
endpoint: mean tumor weight, dose: 200.0 mg/kg/injection, schedule: Q07DX006 (ip), vehicle: saline
  T/C: 107 % of control
endpoint: mean tumor weight, dose: 200.0 mg/kg/injection, schedule: Q07DX009 (ip), vehicle: saline
  T/C: 24 % of control
endpoint: median tumor weight (est.), dose: 12.5 mg/kg/injection, schedule: Q07DX005 (ip), vehicle: saline
  T/C: 92 % of control
endpoint: median tumor weight (est.), dose: 25.0 mg/kg/injection, schedule: Q07DX005 (ip), vehicle: saline
  T/C: 97 % of control and 117 % of control
endpoint: median tumor weight (est.), dose: 200.0 mg/kg/injection, schedule: Q07DX005 (ip), vehicle: saline
  T/C: 62 % of control and 73 % of control
endpoint: median tumor weight (est.), dose: 400.0 mg/kg/injection, schedule: Q07DX005 (ip), vehicle: saline
  T/C: 37 % of control

## OCC1OC(n2cnc3c2NC=NC[C@H]3O)CC1O (stereo not given in full)
endpoint: median tumor weight (est.), dose: 0.25 mg/kg/injection, schedule: Q07DX005 (ip), vehicle: water
  T/C: 104 % of control
endpoint: median tumor weight (est.), dose: 0.5 mg/kg/injection, schedule: Q07DX005 (ip), vehicle: water
  T/C: 108 % of control
endpoint: median tumor weight (est.), dose: 2.0 mg/kg/injection, schedule: Q07DX005 (ip), vehicle: water
  T/C: 63 % of control
endpoint: median tumor weight (est.), dose: 4.0 mg/kg/injection, schedule: Q07DX005 (ip), vehicle: water
  T/C: 51 % of control
endpoint: median tumor weight (est.), dose: 8.0 mg/kg/injection, schedule: Q07DX005 (ip), vehicle: water
  T/C: 60 % of control

## NC(CNC(=O)CBr)C(=O)O (stereo not given)
endpoint: median tumor weight change, dose: 62.5 mg/kg/injection, schedule: Q01DX001 (ip), vehicle: water
  T/C: 95 % of control
endpoint: median tumor weight change, dose: 125.0 mg/kg/injection, schedule: Q01DX001 (ip), vehicle: water
  T/C: 77 % of control

## CCc1c(CC(=O)O)c2cc(C)ccc2n1Cc1ccc(Cl)cc1
endpoint: median tumor weight change, dose: 125.0 mg/kg/injection, schedule: Q01DX001 (ip), vehicle: Klucel (hydroxypropylcellulose) (HPC)
  T/C: 89 % of control
endpoint: median tumor weight change, dose: 250.0 mg/kg/injection, schedule: Q01DX001 (ip), vehicle: Klucel (hydroxypropylcellulose) (HPC)
  T/C: 101 % of control

## Nc1nncs1
endpoint: median tumor weight (est.), dose: 25.0 mg/kg/injection, schedule: Q07DX005 (ip), vehicle: Klucel (hydroxypropylcellulose) (HPC)
  T/C: 72 % of control and 85 % of control
endpoint: median tumor weight (est.), dose: 50.0 mg/kg/injection, schedule: Q07DX005 (ip), vehicle: Klucel (hydroxypropylcellulose) (HPC)
  T/C: 44 % of control and 62 % of control
endpoint: median tumor weight (est.), dose: 100.0 mg/kg/injection, schedule: Q07DX005 (ip), vehicle: Klucel (hydroxypropylcellulose) (HPC)
  T/C: 34 % of control
endpoint: median tumor weight (est.), dose: 400.0 mg/kg/injection, schedule: Q07DX005 (ip), vehicle: Klucel (hydroxypropylcellulose) (HPC)
  T/C: 24 % of control and 49 % of control

## CO[C@H]1C[C@@H]2CC[C@@H](C)[C@@](O)(O2)C(=O)C(=O)N2CCCC[C@H]2C(=O)O[C@H]([C@H](C)C[C@@H]2CC[C@@H](O)[C@H](OC)C2)CC(=O)[C@H](C)C=C(C)[C@@H](O)[C@@H](OC)C(=O)[C@H](C)C[C@H](C)/C=C/C=C/C=C1C
endpoint: median tumor weight (est.), dose: 3.12 mg/kg/injection, schedule: Q07DX005 (ip), vehicle: clinical formulation
  T/C: 48 % of control
endpoint: median tumor weight (est.), dose: 3.12 mg/kg/injection, schedule: Q07DX005 (ip), vehicle: saline with Tween-80
  T/C: 54 % of control
endpoint: median tumor weight (est.), dose: 6.25 mg/kg/injection, schedule: Q07DX005 (ip), vehicle: clinical formulation
  T/C: 58 % of control
endpoint: median tumor weight (est.), dose: 6.25 mg/kg/injection, schedule: Q07DX005 (ip), vehicle: saline with Tween-80
  T/C: 49 % of control
endpoint: median tumor weight (est.), dose: 12.5 mg/kg/injection, schedule: Q07DX005 (ip), vehicle: clinical formulation
  T/C: 77 % of control
endpoint: median tumor weight (est.), dose: 12.5 mg/kg/injection, schedule: Q07DX005 (ip), vehicle: saline with Tween-80
  T/C: 29 % of control and 40 % of control
endpoint: median tumor weight (est.), dose: 25.0 mg/kg/injection, schedule: Q07DX005 (ip), vehicle: clinical formulation
  T/C: 60 % of control
endpoint: median tumor weight (est.), dose: 25.0 mg/kg/injection, schedule: Q07DX005 (ip), vehicle: saline with Tween-80
  T/C: 25 % of control and 31 % of control
endpoint: median tumor weight (est.), dose: 50.0 mg/kg/injection, schedule: Q07DX005 (ip), vehicle: clinical formulation
  T/C: 50 % of control
endpoint: median tumor weight (est.), dose: 50.0 mg/kg/injection, schedule: Q07DX005 (ip), vehicle: saline with Tween-80
  T/C: 22 % of control and 23 % of control
endpoint: median tumor weight (est.), dose: 100.0 mg/kg/injection, schedule: Q07DX005 (ip), vehicle: clinical formulation
  T/C: 63 % of control
endpoint: median tumor weight (est.), dose: 100.0 mg/kg/injection, schedule: Q07DX005 (ip), vehicle: saline with Tween-80
  T/C: 14 % of control and 20 % of control
endpoint: median tumor weight (est.), dose: 200.0 mg/kg/injection, schedule: Q07DX005 (ip), vehicle: clinical formulation
  T/C: 22 % of control
endpoint: median tumor weight (est.), dose: 200.0 mg/kg/injection, schedule: Q07DX005 (ip), vehicle: saline with Tween-80
  T/C: 10 % of control and 23 % of control

Reference: PubChem BioAssay AID220 (DTP/NCI, 2004)
